Measurements from patent US20250235450A1, “COMBINATION THERAPIES COMPRISING APREMILAST AND TYK2 INHIBITORS” (Celgene Corporation, priority 2019, published 2025).
Read-outs that look alike come from different tables or passages of the source.

System: anti-CD3/anti-CD28 (Th0) or anti-CD3/anti-CD28, IL-1β, IL-6 and IL-23 (Th17) stimulated whole blood
Assay: Ex-vivo TruCulture tube assay: cytokine production in stimulated whole blood
Assay type: cell-based, human
Protocol: Whole blood was received through the Celgene Donor program after informed consent and donor deidentification. All volunteers were healthy and were not on any medications for at least 72 hours prior to the blood draw. Blood was collected in sodium heparin tubes. The assay was started within 2 hours of the blood draw.
An ex-vivo stimulation of healthy donor human whole blood was performed under two different stimulation conditions. Condition Th0 was a stimulation with TruCulture® tubes containing anti-CD3/anti-CD28. Condition Th17 was a stimulation with TruCulture® tubes containing anti-CD3/anti-CD28 plus IL-1β, IL-6 and IL-23. Whole blood was separated into 15 milliliter conical tubes and pre-treated with DMSO, apremilast alone, BMS-986165 alone or BMS-986165 combined with apremilast. Final concentrations were 0.2% DMSO, 1 μM for apremilast alone, 1 μM, 0.1 μM, 0.01 μM and 0.001 μM BMS-986165 alone and in combination with 1 μM apremilast. Blood was mixed well and then incubated in a 37° C./5% CO2 incubator for 1 hour.
The anti-CD3/anti-CD28 (200 ng/ml and 330 ng/ml final concentrations respectively) TruCulture® tubes were thawed on the bench top for 30 minutes and then labeled. Plungers were pressed and then broken off. TruCulture® tubes were placed in a rack standing upright such that the plunger side is pointing down in the rack and the tube-cap is pointing up. While blood was incubating with compound Human recombinant IL-6, IL-1β and IL-23 were added to all Th17 tubes in the following concentrations: 120 ng IL-6, 120 ng IL-1b and 150 ng IL-23. One ml of the pre-treated whole blood was placed in each tube, using sterile pyrogen-free pipette tips. The cap was replaced and the contents of the tube were mixed by inverting 3 times. The tubes were immediately placed in a 37° C. heat block and incubated for 42 hours (tube-cap end). After the 42 hours the tubes were removed from the heat block, tops were unscrewed and 250 μl of the supernatant was removed and transferred into three 96-well polypropylene plates. Samples were immediately frozen at −80° C. The supernatants were then thawed at room temperature and tested neat for cytokine production by Luminex Multi-Plex MagPix technology (Millipore) or IL-22 by ELISA (Abcam). The manufacturer's procedures were followed accordingly.
Data processing for the cytokine analysis was done using Milliplex Analyst (Millipore), and raw data was exported to Excel template for the cytokine analysis. Data from the template was plotted using GraphPad Prism 7.0 (GraphPad Software, Inc., La Jolla, CA) and expressed as pg/ml or % of control. Statistical analysis was also performed using One Way Anova and Dunnett's Post Test.
To evaluate the combinatory effect of apremilast and BMS-986165, data from the two independent treatments were analyzed by comparing the combinatory response against the theoretical additive response of the two agents. The expected additive effect of two agents (A and B) was calculated using the fractional product method: (fu)A,B=(fu)A×(fu)B; where fu=fraction unaffected by treatment.

[1] = Th0, 0.01 μM BMS-986165 (combination: + 1 μM apremilast)
[2] = Th0, 0.1 μM BMS-986165 (combination: + 1 μM apremilast)
[3] = Th17, 0.01 μM BMS-986165 (combination: + 1 μM apremilast)
[4] = Th17, 0.1 μM BMS-986165 (combination: + 1 μM apremilast)

SMILES: [2H]C([2H])([2H])NC(=O)c1nnc(NC(=O)C2CC2)cc1Nc1cccc(-c2ncn(C)n2)c1OC [BMS-986165, 6-(cyclopropanecarboxamido)-4-((2-methoxy-3-(1-methyl-1H-1,2,4-triazol-3-yl)phenyl)amino)-N-(methyl-d3)pyridazine-3-carboxamide]
- increase of GM-CSF, statistical significance (0.1 μM BMS-986165 (Th0 and Th17) and 1 μM (Th17)): significant
- inhibition at 0.01 µM (Homo sapiens, Th0, 0.01 μM BMS-986165, read-out: inhibition of IL-22): 16%
- inhibition at 0.1 µM (Homo sapiens, Th0, 0.1 μM BMS-986165, read-out: inhibition of IL-22): 86%
- inhibition at 1 µM (Homo sapiens, Th0, 1 μM BMS-986165, read-out: inhibition of IL-22): 91%
- inhibition at 0.001 µM (Homo sapiens, Th17, 0.001 μM BMS-986165 (combination: + 1 μM apremilast), read-out: inhibition of IL-17F): 31%
- inhibition at 0.01 µM (Homo sapiens, Th17, 0.01 μM BMS-986165 (combination: + 1 μM apremilast), read-out: inhibition of IL-17F): 34%
- inhibition at 0.1 µM (Homo sapiens, Th17, 0.1 μM BMS-986165 (combination: + 1 μM apremilast), read-out: inhibition of IL-17F): 70%
- inhibition at 1 µM (Homo sapiens, Th17, 1 μM BMS-986165 (combination: + 1 μM apremilast), read-out: inhibition of IL-17F): 95%
- inhibition at 1 µM (Homo sapiens, Th17, 1 μM BMS-986165, read-out: inhibition of TNF-α): 68%
- increase in TNF-α expression (Th0, 0.001 μM BMS-986165): 21%
- increase of GM-CSF (Th0, 0.001 μM BMS-986165): 19%
- increase in TNF-α expression (Th0, 0.01 μM BMS-986165): 43%
- increase of GM-CSF (Th0, 0.01 μM BMS-986165): 36%
- CCL20 % of Control [1]: 82.7 % of Control
- GM-CSF % of Control [1]: 136.3 % of Control
- IFN-γ % of Control [1]: 100.2 % of Control
- IL-1β % of Control [1]: 113.5 % of Control
- IL-2 % of Control [1]: 120.1 % of Control
- IL-4 % of Control [1]: 122.8 % of Control
- IL-5 % of Control [1]: 153.1 % of Control
- IL-6 % of Control [1]: 149.3 % of Control
- IL-10 % of Control [1]: 101.5 % of Control
- IL-13 % of Control [1]: 146.9 % of Control
- IL-17A % of Control [1]: 83.5 % of Control
- IL-17F % of Control [1]: 68.5 % of Control
- IL-21 % of Control [1]: 107.6 % of Control
- IL-22 % of Control [1]: 84.1 % of Control
- IL-23 % of Control [1]: 101.8 % of Control
- TNF-α % of Control [1]: 143.1 % of Control
- increase in TNF-α expression (Th0, 0.1 μM BMS-986165): 61%
- increase of GM-CSF (Th0, 0.1 μM BMS-986165): 110%
- CCL20 % of Control [2]: 106.4 % of Control
- GM-CSF % of Control [2]: 210.5 % of Control
- IFN-γ % of Control [2]: 80.9 % of Control
- IL-1β % of Control [2]: 113.2 % of Control
- IL-2 % of Control [2]: 187.4 % of Control
- IL-4 % of Control [2]: 114.7 % of Control
- IL-5 % of Control [2]: 178.6 % of Control
- IL-6 % of Control [2]: 124.0 % of Control
- IL-10 % of Control [2]: 33.8 % of Control
- IL-13 % of Control [2]: 205.9 % of Control
- IL-17A % of Control [2]: 73.0 % of Control
- IL-17F % of Control [2]: 28.3 % of Control
- IL-21 % of Control [2]: 94.5 % of Control
- IL-22 % of Control [2]: 13.4 % of Control
- IL-23 % of Control [2]: 89.9 % of Control
- TNF-α % of Control [2]: 160.7 % of Control
- increase of GM-CSF (Th0, 1 μM BMS-986165): 31%
- inhibition of TNF-α cytokine expression (Th0, 1 μM BMS-986165): 66%
- IL-17A levels (Th0, 1 μM BMS-986165 (combination: + 1 μM apremilast), control 138 pg/mL): 97 pg/mL
- effect on IL-17A cytokine expression (Th0 and Th17): inhibited
- effect on IL-17F cytokine expression (Th0 and Th17): inhibited
- effect on IL-22 cytokine expression (Th0 and Th17): inhibited
- effect on IL-22 cytokine expression, statistical significance (Th0 and Th17, 0.1 μM and 1 μM BMS-986165): significantly lowered
- inhibition of TNF-α levels, statistical significance (Th0 and Th17, 1 μM BMS-986165): significant
- effect on IL-17F, statistical significance (Th0 and Th17, 0.1 and 1 μM BMS-986165): significantly reduced
- effect on IL-22 cytokine expression (Th17, 0.001 μM BMS-986165): no effect
- increase in TNF-α production (Th17, 0.01 μM BMS-986165): 19%
- increase of GM-CSF (Th17, 0.01 μM BMS-986165): 41%
- CCL20 % of Control [3]: 121.7 % of Control
- GM-CSF % of Control [3]: 141.1 % of Control
- IFN-γ % of Control [3]: 114.2 % of Control
- IL-1β % of Control [3]: 94.2 % of Control
- IL-2 % of Control [3]: 128.5 % of Control
- IL-4 % of Control [3]: 126.5 % of Control
- IL-5 % of Control [3]: 144.3 % of Control
- IL-6 % of Control [3]: 96.8 % of Control
- IL-10 % of Control [3]: 78.4 % of Control
- IL-13 % of Control [3]: 158.1 % of Control
- IL-17A % of Control [3]: 97.7 % of Control
- IL-17F % of Control [3]: 73.6 % of Control
- IL-21 % of Control [3]: 91.5 % of Control
- IL-22 % of Control [3]: 83.3 % of Control
- IL-23 % of Control [3]: 93.8 % of Control
- TNF-α % of Control [3]: 118.5 % of Control
- inhibition of IL-22 cytokine expression [3]: 17%
- IL-17A levels (Th17, 0.01 μM BMS-986165 (combination: + 1 μM apremilast), control 532 pg/mL): 519 pg/mL
- increase in TNF-α levels, statistical significance (Th17, 0.1 μM BMS-986165): significant
- increase in TNF-α production (Th17, 0.1 μM BMS-986165): 77%
- increase of GM-CSF (Th17, 0.1 μM BMS-986165): 139%
- CCL20 % of Control [4]: 157.8 % of Control
- GM-CSF % of Control [4]: 239.3 % of Control
- IFN-γ % of Control [4]: 74.7 % of Control
- IL-1β % of Control [4]: 89.0 % of Control
- IL-2 % of Control [4]: 250.3 % of Control
- IL-4 % of Control [4]: 161.9 % of Control
- IL-5 % of Control [4]: 249.9 % of Control
- IL-6 % of Control [4]: 112.7 % of Control
- IL-10 % of Control [4]: 46.6 % of Control
- IL-13 % of Control [4]: 287.5 % of Control
- IL-17A % of Control [4]: 79.2 % of Control
- IL-17F % of Control [4]: 30.0 % of Control
- IL-21 % of Control [4]: 86.3 % of Control
- IL-22 % of Control [4]: 39.8 % of Control
- IL-23 % of Control [4]: 96.3 % of Control
- TNF-α % of Control [4]: 177.4 % of Control
- inhibition of IL-22 cytokine expression [4]: 60%
- IL-17A levels (Th17, 0.1 μM BMS-986165 (combination: + 1 μM apremilast), control 532 pg/mL): 428 pg/mL
- increase of GM-CSF (Th17, 1 μM BMS-986165): 104%
- inhibition of IL-22 cytokine expression (Th17, 1 μM BMS-986165): 70%
- IL-17A levels (Th17, 1 μM BMS-986165 (combination: + 1 μM apremilast), control 532 pg/mL): 383 pg/mL
- inhibition of IL-17A expression (similar under Th0 and Th17, 0.001-1 μM BMS-986165): 10-25%
- effect on GM-CSF production (whole blood, Th0 and Th17): increased
- effect on TNF-α production (whole blood, Th0 and Th17): increased
